Test results as given in patent US7528226B2, “TGFβ1-inhibitor peptides” (Rojecto de Biomedicina Cima S.L., priority 1998, dated 2009).
No end group written: not given here.

Target: T1, TGFβ1 (Homo sapiens, UniProt P01137)
T1 construct: the mature TGFβ1 is released by another cut; purchased R&D Systems Europe Ltd., Abingdon, UK
Assay type: cell-based
Details: TGFβ1 200 pg/ml
Method: A line derived from mink pulmonary epithelium, MV-1-Lu, was used (CCL-64, American Type Cell Culture, Virginia, USA). The cells were grown in 162 cm^2 culture flasks (Costar Corporation, Cambridge, USA) in a stove at 37° C. and 5% CO2, until subconfluence was attained. A complete medium was used: RPMI 1640 with L-glutamine (GibcoBRL, Life Technologies Ltd., Paisley, Scotland) supplemented with 5% of foetal calf serum (FCS, Biological Industries, Kibbutz Beit Haemek, Israel), 10 mM HEPES (1M HEPES Buffer, Bio-Whittaker, Verviers, Belgium) and antibiotics (100 U/ml penicillin and 100 μ/ml streptomycin).
The MV-1-Lu cells grown as indicated above were removed from the bottom of the culture flasks using 5 ml of trypsin-EDTA (Biological Industries, Kibbutz Beit Haemek, Israel), resuspended in complete medium and centrifuged at 1500 rev/min for 8 minutes. After centrifugation the cells were resuspended in complete medium to a concentration of 50,000 cells/ml. For conducting the test, 10 ml of the cell suspension were taken and dispensed in 96-well, flat-bottom culture plates (Costar Corporation, Cambridge, USA), adding 100 μl/well, and were incubated overnight at 37° C. and 5% CO2, which permits adhesion of the cells to the bottom of the wells. […] The final concentration of FCS in the well was 2.5%. After 24 hours of incubation, 1 μCi of tritiated thymidine was added per well (25 Ci/mmol [methyl-^3H]-thymidine, Amersham Life Science, Buckinghamshire, UK) with incubation for a further 12 hours (Grubeck-Loebenstein B. et al. (1989) J. Clin. Invest. 83:764-770; Brennan F M et al. (1990) Clin. Exp. Immunol. 81:278-285).
At the end of the incubation periods the cells were removed from the bottom of the wells with trypsin-EDTA and were collected using a manual harvester (Titertek cell harvester, Skatron Instruments Inc., Sterling, USA) which ruptures the cells, collecting the DNA in nitrocellulose filters (Filter MAT 11731, Skatron Instruments Inc., Sterling, USA) where it is fixed. The filters were placed individually in 5 ml polypropylene tubes to which 4 ml of scintillation fluid was added (Biogreen-11, Reactivos Scharlau S. A., Barcelona, Spain). The activity of each tube was quantified for 90 seconds in a β LKB scintillation counter (Beta plate system, LKB, Uppsala, Sweden).
TGFβ1 is a cytokine that is able to inhibit the growth in vitro of the MV-1-Lu cell line (Grubeck-Loebenstein B. et al. (1989) J. Clin. Invest. 83:764-770; Brennan F M et al. (1990) Clin. Exp. Immunol. 81:278-285), therefore this line was used for testing the blocking effect of peptides on TGFβ1. After different combinations of media, cells and thymidine, we studied the effect of different concentrations of TGFβ1 on incorporation of [methyl-^3H]thymidine by MV-1-Lu cells in culture, for determining the most suitable conditions for the test. […]
The synthetic peptides that are potentially inhibitors of TGFβ1 activity, selected as indicated above in the section: selection of the peptides to be synthesized (both those derived from proteins that bind to TGFβ1 itself) were tested using the MV-1-Lu cell line. The selected peptides are soluble in buffered RPMI medium. The peptides were dissolved in buffered RPMI medium, free from foetal calf serum, and the following was used.
The peptides belonging to the sequence of the receptor, or complementary to the peaks of hydrophilicity of TGFβ1, were incubated for 30 minutes in the presence of this cytokine and were then combined with the cell culture. The peptides derived from the sequence of TGFβ1 were added to the cell culture prior to addition of TGFβ1, since they interact with the receptors of the cell surface. These incubations were effected in 100 μl of the same medium as was used for adding the cells. The active peptides permitted cell growth to a greater or lesser degree depending on its ability to inhibit TGFβ1.

T1 sequence (P01137 279-390): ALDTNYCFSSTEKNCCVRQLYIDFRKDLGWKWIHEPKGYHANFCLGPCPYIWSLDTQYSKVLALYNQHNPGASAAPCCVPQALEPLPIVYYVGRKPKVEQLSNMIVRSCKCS

Sequence: TSLDASIIWAMMQN [P144, ThrSerLeuAspAlaSerIleIleTrpAlaMetMetGlnAsn]
- dependence of the inhibitory activity on the peptide concentration (dose-response test): activity of the peptide decreases with the decrease in the concentration
- inhibitory activity of TGFβ1 (in words) (peptide 200 μg/ml, MV-1-Lu cells): had proved active
